Test results taken from ChEMBL document CHEMBL2434883, “Novel heterocyclic-fused pyrimidine derivatives: synthesis, molecular modeling and pharmacological screening” (Eur J Med Chem, 2013).
≈ marks a conversion by molar mass, not a printed value.

Tests used:
[1] = system: MCF7; assay: Cytotoxicity against human MCF7 cells after 48 hrs by SRB assay; format: functional, cell-based; conditions: MCF7, 48 h
[2] = organism: Homo sapiens; assay: Inhibition of VEGFR (unknown origin) using [33P]-ATP as substrate at 10 uM after 30 mins by scintillation counting analysis relative to control
[3] = target: Proto-oncogene tyrosine-protein kinase Src (Homo sapiens) (UniProt P12931); assay: Inhibition of c-Src (unknown origin) using [33P]-ATP as substrate at 10 uM after 30 mins by scintillation counting analysis relative to control
Chain of Proto-oncogene tyrosine-protein kinase Src (Homo sapiens) (P12931 2-536 limits assumed): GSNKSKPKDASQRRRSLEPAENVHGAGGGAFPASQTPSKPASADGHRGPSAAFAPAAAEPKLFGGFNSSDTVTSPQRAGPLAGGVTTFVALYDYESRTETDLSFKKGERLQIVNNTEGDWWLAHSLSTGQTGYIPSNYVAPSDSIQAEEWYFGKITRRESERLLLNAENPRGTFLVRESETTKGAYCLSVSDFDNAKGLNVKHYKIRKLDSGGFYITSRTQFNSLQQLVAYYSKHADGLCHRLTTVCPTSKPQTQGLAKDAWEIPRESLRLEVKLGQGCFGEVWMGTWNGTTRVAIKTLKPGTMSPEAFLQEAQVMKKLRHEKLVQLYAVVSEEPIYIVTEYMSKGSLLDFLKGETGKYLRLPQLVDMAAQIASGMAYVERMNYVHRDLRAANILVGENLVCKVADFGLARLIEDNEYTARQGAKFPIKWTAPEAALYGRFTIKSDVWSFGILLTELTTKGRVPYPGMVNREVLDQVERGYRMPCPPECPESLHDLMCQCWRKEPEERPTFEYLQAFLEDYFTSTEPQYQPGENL

inhibition [2] [%] | inhibition [3] [%] | Compound | IC50 [1] [µg/mL]
25 | 45 | N#CC1=C(N2C(=O)C(=O)N(c3ccccc3)C2=O)N(c2ccccc2)C(=O)N2CCCC12 (stereo not given) | 10.8 (≈ 25.3 µM)
– | – | O=C1N(c2ccccc2)c2nc[nH]c(=O)c2C2CCCN12 (stereo not given) | 14.8 (≈ 52.4 µM)
– | – | Cc1ccc(NC(=O)CNC2=C(C#N)C3CCCN3C(=O)N2c2ccccc2)cc1 (stereo not given) | 21.6 (≈ 53.8 µM)
– | – | Nc1nc(=S)[nH]c2c1C1CCCN1C(=S)N2c1ccccc1 (stereo not given) | 22.8 (≈ 69.2 µM)
11 | 0 | N=c1c2c([nH]c(=O)n1-c1ccccc1)N(c1ccccc1)C(=O)N1CCCC21 (stereo not given) | 9.6 (≈ 25.7 µM)
– | – | N#CC1=C(NC(=O)Nc2ccccc2)N(c2ccccc2)C(=S)N2CCCC12 (stereo not given) | 14.2 (≈ 36.5 µM)
– | – | N#CC1=C(NC(=O)Nc2ccccc2)N(c2ccccc2)C(=O)N2CCCC12 (stereo not given) | 19.8 (≈ 53 µM)
– | – | O=C1N(c2ccccc2)c2[nH]c(=S)nc(/N=C/c3ccc(Cl)cc3)c2C2CCCN12 (stereo not given) | 12.4 (≈ 28.4 µM)
3 | 81 | O=C1N(c2ccccc2)c2nc[nH]c(=O)c2C2CCCCCN12 (stereo not given) | 11.2 (≈ 36.1 µM)
– | – | Nc1nc(=S)[nH]c2c1C1CCCCCN1C(=O)N2c1ccccc1 (stereo not given) | 10.8 (≈ 31.6 µM)
– | – | Nc1nc(=S)[nH]c2c1C1CCCN1C(=O)N2c1ccccc1 (stereo not given) | 13.6 (≈ 43.4 µM)
– | – | N#CC1=C(NC(=S)Nc2ccccc2)NC(=S)N2CCCC12 (stereo not given) | 20.8 (≈ 63.1 µM)
– | – | O=c1sc(=S)[nH]c2c1C1CCCN1C(=S)N2c1ccccc1 (stereo not given) | 18.8 (≈ 54.1 µM)
– | – | O=C1N(c2ccccc2)c2[nH]c(=S)nc(/N=C/c3ccc(Cl)cc3)c2C2CCCCCN12 (stereo not given) | 10.6 (≈ 22.8 µM)
– | – | O=C1N(c2ccccc2)c2[nH]c(=S)sc(=O)c2C2CCCCCN12 (stereo not given) | 14 (≈ 38.9 µM)
– | – | N#CC1=C(NC(=S)Nc2ccccc2)N(c2ccccc2)C(=O)N2CCCC12 (stereo not given) | 16.6 (≈ 42.6 µM)
– | – | Cc1ccc(NC(=O)CNC2=C(C#N)C3CCCN3C(=S)N2c2ccccc2)cc1 (stereo not given) | 12.8 (≈ 30.7 µM)
– | – | NNc1ncnc2c1C1CCCN1C(=O)N2c1ccccc1 (stereo not given) | 11 (≈ 37.1 µM)
– | – | O=c1[nH]cnc2c1C1CCCN1C(=S)N2c1ccccc1 (stereo not given) | 20 (≈ 67 µM)
– | – | N#CC1=C(N2C(=O)CN(c3ccccc3)C2=O)N(c2ccccc2)C(=O)N2CCCC12 (stereo not given) | 18.6 (≈ 45 µM)
0 | 0 | N#CCC(=O)NC1=C(C#N)C2CCCN2C(=O)N1c1ccccc1 (stereo not given) | 12.8 (≈ 39.8 µM)
– | – | O=C1N(c2ccccc2)c2[nH]c(=S)sc(=O)c2C2CCCN12 (stereo not given) | 17 (≈ 51.3 µM)
